Experimental data taken from patent US20230373985A1 (Origenis Gmbh, priority 2020, published 2023).

Columns and labels:
[1] = biological target: T1, wt human NUAK1, full length (Homo sapiens, UniProt O60285); experiment: TR-FRET LanthaScreen Eu Kinase Binding Assay, NUAK1; conditions: read-out: IC50, Activity Toward NUAK1
T1 construct: 8 nM wt human NUAK1, full length (ThermoFisher/USA); purchased ThermoFisher
T1 sequence (O60285 1-661): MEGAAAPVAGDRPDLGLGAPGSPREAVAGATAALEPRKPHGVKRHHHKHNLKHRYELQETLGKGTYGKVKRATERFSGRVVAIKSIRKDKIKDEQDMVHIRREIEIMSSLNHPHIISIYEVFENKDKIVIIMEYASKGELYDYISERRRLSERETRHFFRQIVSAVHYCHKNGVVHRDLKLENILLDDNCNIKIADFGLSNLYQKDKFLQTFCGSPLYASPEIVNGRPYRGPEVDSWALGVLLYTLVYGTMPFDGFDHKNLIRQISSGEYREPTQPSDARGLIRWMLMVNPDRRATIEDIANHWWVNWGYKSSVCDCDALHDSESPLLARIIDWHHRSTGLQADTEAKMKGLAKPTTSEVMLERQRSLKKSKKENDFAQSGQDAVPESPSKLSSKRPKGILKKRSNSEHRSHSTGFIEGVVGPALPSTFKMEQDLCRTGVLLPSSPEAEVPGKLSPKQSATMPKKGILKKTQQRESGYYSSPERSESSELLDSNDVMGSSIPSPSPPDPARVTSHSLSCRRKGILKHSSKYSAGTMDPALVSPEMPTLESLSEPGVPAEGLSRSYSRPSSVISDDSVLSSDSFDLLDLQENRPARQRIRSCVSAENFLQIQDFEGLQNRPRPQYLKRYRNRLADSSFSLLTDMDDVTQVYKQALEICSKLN
Description: The basic protocol for TR-FRET LanthaScreen Eu Kinase Binding Assay inhibitor studies were performed as follows. LanthaScreen Kinase Binding Assays (ThermoFisher/USA) to evaluate inhibitors were performed by addition of 5 μL of test compound in corresponding DMSO dilutions/5 μl of kinase/antibody mixture, 5 μL of tracer into 384 well small volume plates. After incubation for 1 hour at room temperature, plates were read. Data analysis of emission ratios was according LanthaScreen Eu Kinase Binding Assay protocol.
Kinase and assay components were adjusted to final concentrations according to kit protocol. For LRRK2: 5 nM wt human LRRK2, catalytic site, or G2019S human LRRK2, catalytic site (ThermoFisher/USA), 2 nM Eu-Anti-GST Antibody, 10 nM Kinase Tracer 236 in 1× Kinase Buffer A. For NUAK1: 8 nM wt human NUAK1, full length (ThermoFisher/USA), 2 nM Eu-Anti-His Antibody, 5 nM Kinase Tracer 236 in 1× Kinase Buffer A.

[2] = biological target: T2, wt human JAK1, catalytic site (Homo sapiens, UniProt P23458); experiment: HTRF KinEASE assay, JAK1; format: biochemical; conditions: 2.5 μM ATP; read-out: IC50, Activity Toward JAK1
T2 construct: wt human JAK1, catalytic site; purchased ThermoFisher
T2 sequence (P23458 875-1153 limits assumed): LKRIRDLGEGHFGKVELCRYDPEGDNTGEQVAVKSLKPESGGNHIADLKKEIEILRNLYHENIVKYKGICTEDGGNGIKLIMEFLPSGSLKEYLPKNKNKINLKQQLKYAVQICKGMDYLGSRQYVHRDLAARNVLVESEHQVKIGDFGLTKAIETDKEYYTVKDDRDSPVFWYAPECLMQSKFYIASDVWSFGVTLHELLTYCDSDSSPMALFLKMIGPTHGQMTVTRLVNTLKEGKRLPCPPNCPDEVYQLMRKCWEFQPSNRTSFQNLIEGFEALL
Method in brief: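 Compounds in DMSO dilution were mixed with kinase, biotin-TK substrate and ATP and reacted for ≥30 min at room temperature. Detection reagents (antibody, streptavidin-XL665) were read 60 min later as HTRF, with emission ratios analysed per KinEASE protocol.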

[3] = biological target: T3, wt human TYK2, catalytic site (Homo sapiens, UniProt P29597); experiment: HTRF KinEASE assay, TYK2; format: biochemical; conditions: 1 μM ATP; read-out: IC50, Activity Toward TYK2
T3 construct: wt human TYK2, catalytic site; purchased SignalChem
T3 sequence (P29597 897-1176 limits assumed): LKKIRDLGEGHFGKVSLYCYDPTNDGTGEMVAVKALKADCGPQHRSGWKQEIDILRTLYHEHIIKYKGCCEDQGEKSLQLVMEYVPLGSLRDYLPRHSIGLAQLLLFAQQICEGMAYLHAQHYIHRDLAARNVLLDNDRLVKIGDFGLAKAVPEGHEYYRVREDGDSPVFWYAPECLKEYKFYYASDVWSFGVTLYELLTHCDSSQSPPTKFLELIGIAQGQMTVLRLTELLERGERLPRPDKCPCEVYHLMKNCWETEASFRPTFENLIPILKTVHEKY
Method in brief: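 Kinase reaction run at room temperature for at least 30 min: 2 nM TYK2 with 1 μM ATP, or 1 nM JAK2 with 100 μM ATP, each with 1 μM biotin-TK substrate. Phosphorylation detected by HTRF (60 min antibody/XL665) and evaluated from emission ratios.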

[4] = biological target: T4, wt human LRRK2, catalytic site (Homo sapiens, UniProt Q5S007); experiment: TR-FRET LanthaScreen Eu Kinase Binding Assay, LRRK2 wt; conditions: one range stated for wt and G2019, read-out: IC50, Activity Toward LRRK2(Wt)
T4 construct: 5 nM wt human LRRK2, catalytic site; purchased ThermoFisher
T4 sequence (Q5S007 970-2527 limits assumed): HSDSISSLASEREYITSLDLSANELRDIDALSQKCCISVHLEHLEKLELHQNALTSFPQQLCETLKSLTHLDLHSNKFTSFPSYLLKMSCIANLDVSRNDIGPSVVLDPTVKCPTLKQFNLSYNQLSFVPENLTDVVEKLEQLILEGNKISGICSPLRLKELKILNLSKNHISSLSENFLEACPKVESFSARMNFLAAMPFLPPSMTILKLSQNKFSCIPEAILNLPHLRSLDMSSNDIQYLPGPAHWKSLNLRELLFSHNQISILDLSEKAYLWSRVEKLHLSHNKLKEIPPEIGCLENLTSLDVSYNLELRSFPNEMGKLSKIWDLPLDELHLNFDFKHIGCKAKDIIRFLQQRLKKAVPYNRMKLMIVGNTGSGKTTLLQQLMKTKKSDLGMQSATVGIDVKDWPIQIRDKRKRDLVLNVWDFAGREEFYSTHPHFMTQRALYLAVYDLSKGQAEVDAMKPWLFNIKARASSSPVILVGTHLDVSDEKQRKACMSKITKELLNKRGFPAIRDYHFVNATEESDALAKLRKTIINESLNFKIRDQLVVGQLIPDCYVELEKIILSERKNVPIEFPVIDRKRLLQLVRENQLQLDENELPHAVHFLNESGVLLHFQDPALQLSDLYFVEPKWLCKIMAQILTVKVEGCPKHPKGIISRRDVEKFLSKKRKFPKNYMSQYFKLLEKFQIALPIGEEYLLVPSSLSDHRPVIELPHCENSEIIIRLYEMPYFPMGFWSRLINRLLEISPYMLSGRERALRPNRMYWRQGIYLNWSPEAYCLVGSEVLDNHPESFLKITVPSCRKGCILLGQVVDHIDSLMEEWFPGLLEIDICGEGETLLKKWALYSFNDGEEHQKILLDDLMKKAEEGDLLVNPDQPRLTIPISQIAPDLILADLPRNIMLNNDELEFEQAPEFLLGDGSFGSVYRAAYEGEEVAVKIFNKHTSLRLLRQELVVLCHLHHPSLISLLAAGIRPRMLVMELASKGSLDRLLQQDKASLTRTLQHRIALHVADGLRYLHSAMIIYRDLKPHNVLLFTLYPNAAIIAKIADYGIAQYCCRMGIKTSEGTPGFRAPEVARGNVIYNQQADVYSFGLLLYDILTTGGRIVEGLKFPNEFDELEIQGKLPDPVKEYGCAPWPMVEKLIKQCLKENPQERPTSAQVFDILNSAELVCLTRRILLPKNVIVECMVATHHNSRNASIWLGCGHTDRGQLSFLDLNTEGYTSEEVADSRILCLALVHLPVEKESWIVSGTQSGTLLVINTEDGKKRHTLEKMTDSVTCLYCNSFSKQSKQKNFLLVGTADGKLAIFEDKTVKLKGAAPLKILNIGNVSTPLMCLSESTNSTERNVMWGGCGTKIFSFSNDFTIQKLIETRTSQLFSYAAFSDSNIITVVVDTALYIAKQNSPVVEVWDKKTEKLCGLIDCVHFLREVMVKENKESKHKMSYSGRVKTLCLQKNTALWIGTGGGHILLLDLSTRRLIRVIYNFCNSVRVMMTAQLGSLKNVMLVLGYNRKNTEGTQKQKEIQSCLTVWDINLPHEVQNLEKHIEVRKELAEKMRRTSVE
Method in brief: (§1)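 NUAK1: 8 nM enzyme, 2 nM Eu-anti-His antibody, 5 nM Tracer 236. LRRK2 wt/G2019S: 5 nM enzyme, 2 nM Eu-anti-GST antibody, 10 nM Tracer 236. Kinase Buffer A, 1 h RT, TR-FRET ratio.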

[5] = biological target: T5, G2019S human LRRK2, catalytic site (Homo sapiens, UniProt Q5S007, G2019S); experiment: TR-FRET LanthaScreen Eu Kinase Binding Assay, LRRK2 G2019S; conditions: LRRK2(G2019); one range stated for wt and G2019; read-out: IC50, Activity Toward LRRK2(G2019)
T5 construct: G2019S human LRRK2, catalytic site; purchased ThermoFisher
T5 sequence (Q5S007 970-2527 G2019S limits assumed): as the sequence (Q5S007 970-2527 limits assumed) above, with G1050S counted along it
Method in brief: as §1

**Q.** With CN(C)[C@H]1CCN(C(=O)c2ccc(Nc3cn(-c4c(Cl)cccc4Cl)nc3C(N)=O)cc2)C1 [compound 314, (S)-1-(2,6-dichlorophenyl)-4-((4-(3-(dimethylamino)pyrrolidine-1-carbonyl)phenyl)amino)-1H-pyrazole-3-carboxamide] as the compound, how does the IC50 [1] read?
**A.** 100 to 1000 nM

**Q.** What about the IC50 [2] of the same compound?
**A.** 10 to 100 nM

**Q.** And the IC50 [3]?
**A.** < 10 nM

**Q.** How did the IC50 [1] turn out when CC(C)(C)NC(=O)c1ccc(Nc2cn(-c3c(F)cccc3Cl)nc2C(N)=O)cc1 [compound 27, 4-((4-(tert-butylcarbamoyl)phenyl)amino)-1-(2-chloro-6-fluorophenyl)-1H-pyrazole-3-carboxamide] was run?
**A.** 100 to 1000 nM

**Q.** And the IC50 [2]?
**A.** 100 to 1000 nM

**Q.** What about the IC50 [4] of the same compound?
**A.** 100 to 1000 nM

**Q.** And the IC50 [5]?
**A.** 100 to 1000 nM

**Q.** What about the IC50 [3] of the same compound?
**A.** 10 to 100 nM

**Q.** Which results are given for NC(=O)c1nn(-c2c(Cl)cccc2Cl)cc1Nc1ccc(-c2nc(C(F)(F)F)cn2CCO)cc1 [compound 338, 1-(2,6-dichlorophenyl)-4-((4-(1-(2-hydroxyethyl)-4-(trifluoromethyl)-1H-imidazol-2-yl)phenyl)amino)-1H-pyrazole-3-carboxamide]?
**A.** IC50 [1]: 100 to 1000 nM; IC50 [2]: 100 to 1000 nM; IC50 [3]: < 10 nM

**Q.** What does the source list for NC(=O)c1nn(-c2c(Cl)cccc2Cl)cc1Nc1ccc(C(=O)N2CC[C@H](N)C2)cc1 [compound 319, (S)-4-((4-(3-aminopyrrolidine-1-carbonyl)phenyl)amino)-1-(2,6-dichlorophenyl)-1H-pyrazole-3-carboxamide]?
**A.** IC50 [1]: 100 to 1000 nM; IC50 [2]: 10 to 100 nM; IC50 [3]: 10 to 100 nM

**Q.** For CN(C)CCn1cnnc1-c1ccc(Nc2cn(-c3c(Cl)cccc3Cl)nc2C(N)=O)cc1 [compound 214, 1-(2,6-dichlorophenyl)-4-((4-(4-(2-(dimethylamino)ethyl)-4H-1,2,4-triazol-3-yl)phenyl)amino)-1H-pyrazole-3-carboxamide], which IC50 [1] is on record?
**A.** 100 to 1000 nM

**Q.** What about the IC50 [2] of the same compound?
**A.** 10 to 100 nM

**Q.** And the IC50 [3]?
**A.** < 10 nM

**Q.** Which results are given for Cc1cc(Nc2cn(-c3c(F)cccc3F)nc2C(N)=O)ncn1 [compound 4, 1-(2,6-difluorophenyl)-4-((6-methylpyrimidin-4-yl)amino)-1H-pyrazole-3-carboxamide]?
**A.** IC50 [1]: 100 to 1000 nM; IC50 [4]: 100 to 1000 nM; IC50 [5]: 100 to 1000 nM; IC50 [3]: 100 to 1000 nM

**Q.** Cc1nc2cc(Nc3cn(-c4c(F)cccc4Cl)nc3C(N)=O)ccc2n1C [compound 44, 1-(2-chloro-6-fluorophenyl)-4-((1,2-dimethyl-1H-benzo[d]imidazol-5-yl)amino)-1H-pyrazole-3-carboxamide] was tested. Which IC50 [1] did it give?
**A.** 100 to 1000 nM

**Q.** And the IC50 [2]?
**A.** 100 to 1000 nM

**Q.** What about the IC50 [3] of the same compound?
**A.** 10 to 100 nM

**Q.** NC(=O)c1nn(-c2c(F)cccc2F)cc1Nc1ccccn1 [compound 7, 1-(2,6-difluorophenyl)-4-(pyridin-2-ylamino)-1H-pyrazole-3-carboxamide] was tested. Which IC50 [1] did it give?
**A.** 100 to 1000 nM

**Q.** And the IC50 [4]?
**A.** 100 to 1000 nM

**Q.** And the IC50 [5]?
**A.** 100 to 1000 nM

**Q.** What about the IC50 [3] of the same compound?
**A.** 100 to 1000 nM

**Q.** What does the source list for NC(=O)c1nn(-c2c(Cl)cccc2Cl)cc1Nc1ccc(OC2CCNCC2)cc1 [compound 424, 1-(2,6-dichlorophenyl)-4-((4-(piperidin-4-yloxy)phenyl)amino)-1H-pyrazole-3-carboxamide]?
**A.** IC50 [1]: 100 to 1000 nM; IC50 [2]: 100 to 1000 nM; IC50 [3]: 10 to 100 nM

**Q.** Which results are given for NC(=O)c1nn(-c2c(Cl)cccc2Cl)cc1Nc1cnc(C(=O)N2CC[C@@H](F)C2)cn1 [compound 403, (R)-1-(2,6-dichlorophenyl)-4-((5-(3-fluoropyrrolidine-1-carbonyl)pyrazin-2-yl)amino)-1H-pyrazole-3-carboxamide]?
**A.** IC50 [1]: 100 to 1000 nM; IC50 [3]: 100 to 1000 nM

**Q.** How did the IC50 [1] turn out when CN(C)CCn1ccnc1-c1ccc(Nc2cn(-c3c(Cl)cccc3Cl)nc2C(N)=O)cc1 [compound 251, 1-(2,6-dichlorophenyl)-4-((4-(1-(2-(dimethylamino)ethyl)-1H-imidazol-2-yl)phenyl)amino)-1H-pyrazole-3-carboxamide] was run?
**A.** 100 to 1000 nM

**Q.** What about the IC50 [2] of the same compound?
**A.** 100 to 1000 nM

**Q.** What about the IC50 [3] of the same compound?
**A.** 10 to 100 nM

**Q.** Which results are given for CN1CCC(Oc2ccc(Nc3cn(-c4c(Cl)cccc4Cl)nc3C(N)=O)cc2)CC1 [compound 237, 1-(2,6-dichlorophenyl)-4-((4-((1-methylpiperidin-4-yl)oxy)phenyl)amino)-1H-pyrazole-3-carboxamide]?
**A.** IC50 [1]: 100 to 1000 nM; IC50 [2]: 100 to 1000 nM; IC50 [3]: < 10 nM

**Q.** With NC(=O)c1nn(-c2c(Cl)cccc2Cl)cc1Nc1cn[nH]c1 [compound 407, 4-((1H-pyrazol-4-yl)amino)-1-(2,6-dichlorophenyl)-1H-pyrazole-3-carboxamide] as the compound, how does the IC50 [1] read?
**A.** 100 to 1000 nM

**Q.** And the IC50 [2]?
**A.** 100 to 1000 nM

**Q.** And the IC50 [3]?
**A.** 100 to 1000 nM

**Q.** What does the source list for CN1CCCN(C(=O)c2ccc(Nc3cn(-c4c(Cl)cccc4Cl)nc3C(N)=O)cc2)CC1 [compound 91, 1-(2,6-dichlorophenyl)-4-((4-(4-methyl-1,4-diazepane-1-carbonyl)phenyl)amino)-1H-pyrazole-3-carboxamide]?
**A.** IC50 [1]: 100 to 1000 nM; IC50 [2]: 10 to 100 nM; IC50 [3]: < 10 nM

**Q.** What does the source list for CN=S1(=O)CCN(C(=O)c2ccc(Nc3cn(-c4c(Cl)cccc4Cl)nc3C(N)=O)cc2)CC1 [compound 466, 1-(2,6-dichlorophenyl)-4-((4-(1-(methylimino)-1-oxidothiomorpholine-4-carbonyl)phenyl)amino)-1H-pyrazole-3-carboxamide]?
**A.** IC50 [2]: 10 to 100 nM; IC50 [4]: 100 to 1000 nM; IC50 [5]: 100 to 1000 nM; IC50 [3]: < 10 nM

**Q.** What does the source list for NC(=O)c1nn(-c2c(Cl)cccc2Cl)cc1Nc1ccc(C(=O)N2CC[C@H](N3CCCC3)C2)cc1 [compound 332, (S)-4-((4-([1,3′-bipyrrolidine]-1′-carbonyl)phenyl)amino)-1-(2,6-dichlorophenyl)-1H-pyrazole-3-carboxamide]?
**A.** IC50 [1]: 100 to 1000 nM; IC50 [2]: 100 to 1000 nM; IC50 [3]: < 10 nM

**Q.** How did the IC50 [2] turn out when Cc1cnnn1-c1ccc(Nc2cn(-c3c(Cl)cccc3Cl)nc2C(N)=O)cc1 [compound 391, 1-(2,6-dichlorophenyl)-4-((4-(5-methyl-1H-1,2,3-triazol-1-yl)phenyl)amino)-1H-pyrazole-3-carboxamide] was run?
**A.** 10 to 100 nM

**Q.** What about the IC50 [4] of the same compound?
**A.** 100 to 1000 nM

**Q.** And the IC50 [5]?
**A.** 100 to 1000 nM

**Q.** What about the IC50 [3] of the same compound?
**A.** 10 to 100 nM

**Q.** What does the source list for CN1CCC(NS(=O)(=O)c2ccc(Nc3cn(-c4c(Cl)cccc4Cl)nc3C(N)=O)cc2)CC1 [compound 89, 1-(2,6-dichlorophenyl)-4-((4-(N-(1-methylpiperidin-4-yl)sulfamoyl)phenyl)amino)-1H-pyrazole-3-carboxamide]?
**A.** IC50 [2]: 100 to 1000 nM; IC50 [4]: 100 to 1000 nM; IC50 [5]: 100 to 1000 nM; IC50 [3]: < 10 nM

**Q.** COCCc1ncnn1-c1ccc(Nc2cn(-c3c(Cl)cccc3Cl)nc2C(N)=O)cc1 [compound 327, 1-(2,6-dichlorophenyl)-4-((4-(5-(2-methoxyethyl)-1H-1,2,4-triazol-1-yl)phenyl)amino)-1H-pyrazole-3-carboxamide] was tested. Which IC50 [1] did it give?
**A.** 100 to 1000 nM

**Q.** And the IC50 [2]?
**A.** 10 to 100 nM

**Q.** And the IC50 [3]?
**A.** 10 to 100 nM
